According to patent US20120157548A1, “USE OF CYCLOALIPHATIC DIOLS AS BIOCIDES” (BASF SE, priority 2009, published 2012):

Columns and labels:
[1] = system: P. aeruginosa NCIMB 10421; assay: Biocide test, MIC in tryptone soy broth; assay type: cell-based; conditions: 30° C., 48 hours; for MIC value, from: lower limit of MIC range; for MIC value, to: upper limit of MIC range
Method: (§1) For this, in each case a 40 percent strength by weight solution of a diol in propylene glycol was prepared at 60° C.
(§2) This solution was diluted with a double-strength soy solution (double-strength tryptone soy broth) as nutrient medium in the volume ratio 1:1. Further dilution with soy solution produced solutions with the following concentrations:
(§3) The following microorganisms were used to test the biocidal effect against various bacteria and fungi:
P. aeruginosa NCIMB 10421
(§4) Pure soy solution was used as negative control. The positive control used was a solution of 5 ml of soy solution which has been treated with 0.1 ml of the respective microorganism. The test solutions consisted of 5 ml of the above-described soy solutions of the diols in the particular concentration which have been mixed with 0.1 ml of the respective microorganism.
(§5) The samples and controls were incubated in the case of the bacteria at 30° C. for 48 hours, and in the case of fungi over 5 days at 25° C.
(§6) In each case, the MIC (Minimum Inhibitory Concentration) value was determined. This value indicates the minimum concentration above which the growth of the microorganisms was visibly hindered compared to the corresponding sample without addition of the diol.
(§7) The lower the MIC value, the greater the biocidal effect.
(§8) For example, this was evident from the occurrence of clouding or visible growth of the microorganism.
(§9) The MIC value stated is a range between the next higher concentration of a positive test and the same and/or lower concentration of a first negative test.

A. niger IMI 149007 = assay: Biocide test, MIC in tryptone soy broth; assay type: cell-based; conditions: 25° C., 5 days; for MIC value, from: lower limit of MIC range; for MIC value, to: upper limit of MIC range
Method: as §1, §2, §3, §4, §5, §6, §7, §8, §9

C. albicans NCPF 3179 = assay: Biocide test, MIC in tryptone soy broth; assay type: cell-based; conditions: 25° C., 5 days; for MIC value, from: lower limit of MIC range; for MIC value, to: upper limit of MIC range
Method: as §1, §2, §3, §4, §5, §6, §7, §8, §9

E. coli NCIMB 8545 = assay: Biocide test, MIC in tryptone soy broth; assay type: cell-based; conditions: 30° C., 48 hours; for MIC value, from: lower limit of MIC range; for MIC value, to: upper limit of MIC range
Method: as §1, §2, §3, §4, §5, §6, §7, §8, §9

P. vulgaris NCIMB 4175 = assay: Biocide test, MIC in tryptone soy broth; assay type: cell-based; conditions: 30° C., 48 hours; for MIC value, from: lower limit of MIC range; for MIC value, to: upper limit of MIC range
Method: as §1, §2, §3, §4, §5, §6, §7, §8, §9

S. aureus NCIMB 9578 = assay: Biocide test, MIC in tryptone soy broth; assay type: cell-based; conditions: 30° C., 48 hours; for MIC value, from: lower limit of MIC range; for MIC value, to: upper limit of MIC range
Method: as §1, §2, §3, §4, §5, §6, §7, §8, §9

[2] = system: series of tested microorganisms; assay: Biocide test, highest measured MIC from the series of tested microorganisms; assay type: cell-based; conditions: highest measured MIC of the six microorganisms; for Maximum MIC value, from: lower limit of range; for Maximum MIC value, to: upper limit of range
Method: as §3, §6, §9
In the last line of each of the tables below, a “maximum” value is listed. This value indicates the highest measured MIC value in each case from the series of tested microorganisms.

microorganisms = conditions: as stated for the comparison substances; cited from earlier work

Compound | MIC value, from [1] | MIC value, to [1] | MIC value, from (A. niger IMI 149007) | MIC value, to (A. niger IMI 149007) | MIC value, from (C. albicans NCPF 3179) | MIC value, to (C. albicans NCPF 3179) | MIC value, from (E. coli NCIMB 8545) | MIC value, to (E. coli NCIMB 8545) | MIC value, from (P. vulgaris NCIMB 4175) | MIC value, to (P. vulgaris NCIMB 4175) | MIC value, from (S. aureus NCIMB 9578) | MIC value, to (S. aureus NCIMB 9578) | Maximum MIC value, from [2] | Maximum MIC value, to [2] | biocidal effect (microorganisms)
CCCC(O)CO (centres unmarked) [1,2-Pentanediol] | >12 500 ppm of diol | ≦25 000 ppm of diol | >12 500 ppm of diol | ≦25 000 ppm of diol | >25 000 ppm of diol | ≦50 000 ppm of diol | >25 000 ppm of diol | ≦50 000 ppm of diol | >25 000 ppm of diol | ≦50 000 ppm of diol | >25 000 ppm of diol | ≦50 000 ppm of diol | >25 000 ppm of diol | ≦50 000 ppm of diol | high biocidal effect
CC(O)CC(C)O (centres unmarked) [2,4-Pentanediol] | >50 000 ppm of diol | ≦100 000 ppm of diol | >200 000 ppm of diol | ≦400 000 ppm of diol | >50 000 ppm of diol | ≦100 000 ppm of diol | >50 000 ppm of diol | ≦100 000 ppm of diol | >50 000 ppm of diol | ≦100 000 ppm of diol | >50 000 ppm of diol | ≦100 000 ppm of diol | >200 000 ppm of diol | ≦400 000 ppm of diol | low biocidal effect
CC(O)CO (centres unmarked) [Propylene Glycol] | >100 000 ppm of diol | ≦200 000 ppm of diol | >200 000 ppm of diol | ≦400 000 ppm of diol | >200 000 ppm of diol | ≦400 000 ppm of diol | >200 000 ppm of diol | ≦400 000 ppm of diol | >100 000 ppm of diol | ≦200 000 ppm of diol | >200 000 ppm of diol | ≦400 000 ppm of diol | >200 000 ppm of diol | ≦400 000 ppm of diol | –
Hydroxymethylbicyclo[2.2.1]hept-2-ylmethanol isomers [2,5-2,6-DMNB] | >6 250 ppm of diol | ≦12 500 ppm of diol | >50 000 ppm of diol | ≦100 000 ppm of diol | >50 000 ppm of diol | ≦100 000 ppm of diol | >6 250 ppm of diol | ≦12 500 ppm of diol | >6 250 ppm of diol | ≦12 500 ppm of diol | >6 250 ppm of diol | ≦12 500 ppm of diol | >50 000 ppm of diol | ≦100 000 ppm of diol | –
Hydroxymethylbicyclo[2.2.1]hept-2-ylpropan-1-ol isomers [ENB-Diol] | >50 000 ppm of diol | ≦100 000 ppm of diol | >12 500 ppm of diol | ≦25 000 ppm of diol | >12 500 ppm of diol | ≦25 000 ppm of diol | >3 125 ppm of diol | ≦6 250 ppm of diol | >3 125 ppm of diol | ≦6 250 ppm of diol | >3 125 ppm of diol | ≦6 250 ppm of diol | >50 000 ppm of diol | ≦100 000 ppm of diol | –
Hydroxymethylcyclohexylpropan-1-ol isomers [CHA-diol] | >50 000 ppm of diol | ≦100 000 ppm of diol | >200 000 ppm of diol | ≦400 000 ppm of diol | >6 250 ppm of diol | ≦12 500 ppm of diol | >3 125 ppm of diol | ≦6 250 ppm of diol | >3 125 ppm of diol | ≦6 250 ppm of diol | >6 250 ppm of diol | ≦12 500 ppm of diol | >200 000 ppm of diol | ≦400 000 ppm of diol | –
